Key:
[1] = tested on: circadian rhythm; details: due to melatonergic agonism; cited from earlier work
[2] = tested on: patients with major depressive disorder; assay: Open-label trials of adjunctive agomelatine 25 mg at bedtime in MDD (NCT05118750, NCT05157945): MADRS change by EEG-predicted response; type: in vivo, human
Protocol: The inventors conducted two parallel open-label clinical trials of agomelatine at 25 mg once at bedtime in patients with major depressive disorder (NCT05118750 and NCT05157945, whose data was pooled in these analyses). […] Patients were evaluated over the course of eight weeks of treatment.
EEG data were collected at rest (encompassing both eyes open and eyes closed conditions) prior to treatment using a 19-channel EEG system covering the conventional 10-20 electrode locations. A total of 107 patients with moderate to severe depression (MADRS≥20 and PHQ-9≥10) had EEG data (107 with eyes open (REO) EEG, 105 with eyes closed (REC) EEG). Quality control assessments were conducted, yielding 105 REO patient datasets and 103 REC patient datasets. […] The training dataset consisted of 60 REO patient datasets and 60 REC patient datasets. The holdout set consisted of 49 REO patient datasets and 46 REC patient datasets.
In order to compile these individual signals into a single EEG composite entropy model for prediction of treatment outcome, the inventors conducted 10-fold cross-validated machine learning using elastic net regularization against an outcome of high versus low response to agomelatine. […]
The Cohen's d effect sizes at these weeks are all >0.4, indicating a substantial effect size for the prediction, especially considering that the meta-analytically calculated all-comer (i.e., unselected depression patients) effect size for the difference in treatment response to agomelatine (as monotherapy) versus placebo is d=0.26 (Cipriani et al., Lancet., 2018, 391 (10128): 1357-1366, PMID: 29477251).
Given the approximate 50% prevalence of positivity on the EEG machine learning model, one can estimate the agomelatine-placebo difference in EEG-predicted agomelatine responders by adding the all-comer effect size (d=0.26) to the enrichment in EEG-predicted responders over the all-comer population. This enrichment is calculated by halving the effect size between EEG-predicted responders and non-responders, since the average of these two groups is the all-comer population. […]

[3] = tested on: unselected depression patients; details: meta-analytically calculated; cited from earlier work
[4] = tested on: sleep measures; details: in contrast to an SSRI which did not change these measures; cited from earlier work

Structure (SMILES): COc1ccc2[nH]cc(CCNC(C)=O)c2c1 [melatonin]
- effect on circadian rhythm [1]: phase advance circadian rhythm

Structure (SMILES): COc1ccc2cccc(CCNC(C)=O)c2c1 [agomelatine, N-[2-(7-methoxynaphthalen-1-yl)ethyl]acetamide]
- Cohen's d effect size, predicted responders vs non-responders, change in MADRS scores ([2]; EEG sample entropy machine learning model, cross-validation left-out data of training dataset, all weeks (FIG. 2A)): > 0.4
- Cohen's d, predicted agomelatine responders versus non-responders, observed change in MADRS scores ([2]; EEG sample entropy model, holdout dataset, weeks 4, 6 and 8 (FIG. 2B)): > 0.4
- MADRS change, high vs low Pz low-gamma sample entropy patients ([2]; Pz electrode, 30-40 Hz, z≥0.27, full study sample, all weeks (FIG. 2C)): strong and statistically significant prediction of treatment outcome across all weeks
- all-comer effect size d, treatment response to agomelatine (as monotherapy) versus placebo [3]: 0.26
- sleep measures assessed using actigraphic measurements [4]: improve sleep measures
- effect on circadian rhythm [1]: phase advance circadian rhythm

Source: patent US12226375B1, “Method of treatment and selection of patients benefiting from agomelatine based on EEG measurements” (Alto Neuroscience, Inc., priority 2023, dated 2025)
